Data: BindingDB's records for doi:10.1111/cbdd.12902 (Shahid Bahonar University of Kerman, 2017)

Key:
Acetylcholinesterase = Acetylcholinesterase (Electrophorus electricus, UniProt O42275); assay: Cholinesterases Inhibition Assay
Description: (§1) The stock solutions of the target compounds were prepared in a mixture of DMSO (1 ml) and ethanol (9 ml) and diluted with 0.1 MKH2PO4/K2HPO4 buffer (pH 8.0) to obtain final concentrations. […] of substrate (acetylthiocholine iodide 0.075 m) was added to the test solution to obtain final concentration of […]. All experiments were performed based on the previously described method.[Nadri et al., Bioorg. […] Spectrophotometric measurements were performed on a UV Unico double-beam spectrophotometer. The same method was also taken for BuChE inhibition assay.

[1] = target: Carboxylic ester hydrolase (Equus caballus, UniProt Q9N1N9); assay: Cholinesterases Inhibition Assay
Description: as §1

Acetylcholinesterase, sequence (O42275 whole entry): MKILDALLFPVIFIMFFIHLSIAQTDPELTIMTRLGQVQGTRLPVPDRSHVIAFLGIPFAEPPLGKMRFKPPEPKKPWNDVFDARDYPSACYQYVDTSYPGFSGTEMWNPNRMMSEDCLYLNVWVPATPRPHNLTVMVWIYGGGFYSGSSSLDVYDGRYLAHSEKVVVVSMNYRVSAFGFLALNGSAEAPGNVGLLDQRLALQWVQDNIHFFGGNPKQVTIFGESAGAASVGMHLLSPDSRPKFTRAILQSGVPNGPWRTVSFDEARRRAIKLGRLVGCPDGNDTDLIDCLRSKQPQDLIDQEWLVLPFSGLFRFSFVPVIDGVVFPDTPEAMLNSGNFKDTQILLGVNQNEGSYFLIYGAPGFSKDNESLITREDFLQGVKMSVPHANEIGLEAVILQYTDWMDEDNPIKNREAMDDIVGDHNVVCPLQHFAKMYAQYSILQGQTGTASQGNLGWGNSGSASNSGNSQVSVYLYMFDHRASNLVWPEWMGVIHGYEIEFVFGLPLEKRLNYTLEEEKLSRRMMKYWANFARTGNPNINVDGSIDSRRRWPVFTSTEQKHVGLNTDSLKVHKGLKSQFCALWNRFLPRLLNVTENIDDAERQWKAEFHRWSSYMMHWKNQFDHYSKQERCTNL
Carboxylic ester hydrolase, sequence (Q9N1N9 whole entry): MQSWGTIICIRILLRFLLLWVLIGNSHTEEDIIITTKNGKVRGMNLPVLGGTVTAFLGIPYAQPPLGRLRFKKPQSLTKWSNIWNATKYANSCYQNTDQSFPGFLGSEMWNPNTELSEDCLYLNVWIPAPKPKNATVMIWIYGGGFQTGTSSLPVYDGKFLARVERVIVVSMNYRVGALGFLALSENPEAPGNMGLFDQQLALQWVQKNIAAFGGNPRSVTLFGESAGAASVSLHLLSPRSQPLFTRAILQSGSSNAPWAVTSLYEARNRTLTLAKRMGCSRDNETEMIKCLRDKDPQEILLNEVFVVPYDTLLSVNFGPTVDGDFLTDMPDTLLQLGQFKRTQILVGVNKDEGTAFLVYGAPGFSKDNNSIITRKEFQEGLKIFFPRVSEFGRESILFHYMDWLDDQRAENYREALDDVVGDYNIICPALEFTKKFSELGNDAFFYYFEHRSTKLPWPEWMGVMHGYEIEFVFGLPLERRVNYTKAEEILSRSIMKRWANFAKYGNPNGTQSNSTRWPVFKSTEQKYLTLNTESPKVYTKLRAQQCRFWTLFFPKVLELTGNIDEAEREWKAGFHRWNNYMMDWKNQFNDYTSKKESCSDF

Q: What does the source list for c1ccc(CN2CCN(Cc3ccc(-c4nc5ccccc5o4)cc3)CC2)cc1 [2-(4-((4-Benzylpiperazin-1-yl)methyl)phenyl)benzo[d]oxazole (6i)]?
A: IC50 (Acetylcholinesterase): > 100 µM; IC50 [1]: > 100 µM

Q: c1ccc(CC2CCN(Cc3ccc(-c4nc5ccccc5o4)cc3)CC2)cc1 [2-(4-((4-Benzylpiperidin-1-yl)methyl)phenyl)benzo[d]oxazole (6b)] was tested. Which IC50 (Acetylcholinesterase) did it give?
A: > 100 µM

Q: What about the IC50 [1] of the same molecule?
A: > 100 µM

Q: With CCN1CCN(Cc2ccc(-c3nc4ccccc4o3)cc2)CC1 [2-(4-((4-Ethylpiperazin-1-yl)methyl)phenyl)benzo[d]oxazole (6g)] as the molecule, how does the IC50 (Acetylcholinesterase) read?
A: 38.2 µM

Q: And the IC50 [1]?
A: > 100 µM

Q: How did the IC50 (Acetylcholinesterase) turn out when CN1CCN(Cc2ccc(-c3nc4ccccc4o3)cc2)CC1 [2-(4-((4-Methylpiperazin-1-yl)methyl)phenyl)benzo[d]oxazole (6f)] was run?
A: 62.2 µM

Q: What about the IC50 [1] of the same molecule?
A: > 100 µM

Q: Which results are given for c1ccc(N2CCN(Cc3ccc(-c4nc5ccccc5o4)cc3)CC2)cc1 [2-(4-((4-Phenylpiperazine-1-yl)methyl)phenyl)benzo[d]oxazole (6h)]?
A: IC50 (Acetylcholinesterase): > 100 µM; IC50 [1]: > 100 µM

Q: Which results are given for c1ccc2oc(-c3ccc(CN4CCNCC4)cc3)nc2c1 [2-(4-((Piperazin-1-yl)methyl)phenyl)benzo[d]oxazole (6e)]?
A: IC50 (Acetylcholinesterase): 3.45 µM; IC50 [1]: 21.5 µM

Q: What does the source list for c1ccc2oc(-c3ccc(CN4CCCCC4)cc3)nc2c1 [2-(4-((Piperidin-1-yl)methyl)phenyl)benzo[d]oxazole (6a)]?
A: IC50 (Acetylcholinesterase): 1.03 µM; IC50 [1]: 6.6 µM

Q: What does the source list for c1ccc2oc(-c3ccc(CN4CCCC4)cc3)nc2c1 [2-(4-((Pyrrolidin-1-yl)methyl)phenyl)benzo[d]oxazole (6j)]?
A: IC50 (Acetylcholinesterase): 1.35 µM; IC50 [1]: 8.1 µM

Q: With c1ccc2oc(-c3ccc(CN4CCOCC4)cc3)nc2c1 [2-(4-(Morpholinomethyl)phenyl)benzo[d]oxazole (6c)] as the molecule, how does the IC50 (Acetylcholinesterase) read?
A: 20.1 µM

Q: What about the IC50 [1] of the same molecule?
A: > 100 µM

Q: Which results are given for c1ccc2oc(-c3ccc(CN4CCSCC4)cc3)nc2c1 [2-(4-(Thiomorpholinomethyl)phenyl)benzo[d]oxazole (6d)]?
A: IC50 (Acetylcholinesterase): 2.55 µM; IC50 [1]: 16.9 µM

Q: CN(Cc1ccccc1)Cc1ccc(-c2nc3ccccc3o2)cc1 [(4-(Benzo[d]oxazol-2-yl)phenyl)-N-benzyl-N-methylmethanamine (6l)] was tested. Which IC50 (Acetylcholinesterase) did it give?
A: 30.8 µM

Q: And the IC50 [1]?
A: > 100 µM

Q: What does the source list for c1ccc(CNCc2ccc(-c3nc4ccccc4o3)cc2)cc1 [(4-(Benzo[d]oxazol-2-yl)phenyl)-Nbenzylmethylamine (6k)]?
A: IC50 (Acetylcholinesterase): 25.4 µM; IC50 [1]: > 100 µM

Q: For c1ccc(CN2CCC(NCc3ccc(-c4nc5ccccc5o4)cc3)CC2)cc1 [N-((4-(benzo[d]oxazol-2-yl)phenyl)methyl)-1-benzylpiperidin-4-amine (6n)], which IC50 (Acetylcholinesterase) is on record?
A: 7.76 µM

Q: What about the IC50 [1] of the same molecule?
A: 50.1 µM

Q: Which IC50 (Acetylcholinesterase) does the source give for CCN(Cc1ccccc1)Cc1ccc(-c2nc3ccccc3o2)cc1 [N-((4-(benzo[d]oxazol-2-yl)phenyl)methyl)-N-benzylethanamine (6m)] here?
A: 56.4 µM

Q: And the IC50 [1]?
A: > 100 µM
